What was measured:
[1] = Clinical comparison in petit mal epilepsy; assay type: in vivo, human (patients)
[2] = Duration of Nembutal-induced sleep; assay type: in vivo; conditions: for Average Duration of Nembutal-Induced Sleep: P = 0.05, Nembutal 40 mg/kg, proposed preparation 100 mg/kg, zarontin 150 mg/kg, milontin 100 mg/kg
Excerpt: (§1) Nembutal was used as a trunk narcotic, and urethane as a cortical narcotic.

[3] = Duration of urethane-induced sleep; assay type: in vivo; conditions: milontin 100 mg/kg; for Average Duration of Urethane-Induced Sleep: P = 0.05, urethane 1,000 mg/kg, proposed preparation 100 mg/kg, zarontin 150 mg/kg
Excerpt: as §1

[4] = Acute toxicity, single intraperitoneal administration, 48 hours (Litchfield and Wilcockson); assay type: in vivo, white mice; conditions: intraperitoneal, white mice, P=0.05; for LD50: 2880 min; for LD50 at 48 h: mouse, in vivo, ip
Experimental: The acute toxicity of the proposed preparation was tested on white mice weighing 19 to 20 g, by single intraperitoneal administrations of 1.5- and 10-percent colloidal solutions of the anticonvulsant in a 0.5-percent solution of carboxymethyl cellulose. The animals were observed during 48 hours. In order to establish the median lethal dose (LD50), the experimental data was statistically processed using the Litchfield and Wilcockson techniques. Milontin and zarontin were analyzed in the same way.

[5] = Neurotoxicity: rightening, gait, stance, muscle tone and equilibrium tests; assay type: in vivo; conditions: P = 0.05; for TD50: in vivo, read-out: TD50 (mean neurotoxic dose)
Experimental: The neurotoxicity levels were determined by conducting rightening, gait, stance, muscle tone and equilibrium tests.

Camphor convulsions test = conditions: for ED50: Mus musculus, read-out: ED50 (camphor)
Experimental: (§2) The anticonvulsant action of the proposed preparation was tested on mice weighing 19 to 25 g and rats weighing 120 to 150 g by conducting maximum electroshock, corazol, strychnine, camphor, nicotine and arecoline tests.

[6] = Maximum electroshock test
Experimental: as §2

animal or person = assay: animal or person
Experimental: The general effect of the proposed preparation was tested on white mice, rats and rabbits.

Experimental for Corazol convulsion test: as §2

Structure (SMILES): CC1(c2ccccc2)CC(=O)N(CN2CCOCC2)C1=O (stereo not shown) [morpholep]
- patients with improvement [1]: 12 out of 14

Structure (SMILES): CCC1(C)CC(=O)NC1=O (stereo not shown) [suxilep]
- patients with improvement [1]: 10 out of 12

Structure (SMILES): CCCC(C)C1(CC)C(=O)NC(=O)NC1=O (stereo not shown) [Nembutal]
- Average Duration of Nembutal-Induced Sleep [2]: 40.8 ± 23.04 min

Structure (SMILES): CCOC(N)=O [Urethane]
- Average Duration of Urethane-Induced Sleep [3]: 3.3 ± 1.4 min

Structure (SMILES): CN1C(=O)CC(c2ccccc2)C1=O (stereo not drawn) [Milontin, N-methyl-α-phenylsuccinimide]
- Average Duration of Nembutal-Induced Sleep [2]: 139.2 ± 33.2 min
- prolongation of the hypnotic action of Nembutal ([2]; in words): statistically significant prolongation
- antistrychnine effect, ranking of the three drugs (in words): at its lowest
- ED50 (strychnine) (strychnine): 230 mg/kg
- protection index I=TD50/ED50, Strychnine (strychnine): 1.47
- protection index PI (mean lethal dose / mean effective dose), Strychnine (strychnine): 4.14
- Average Duration of Urethane-Induced Sleep [3]: 16.5 ± 4.6 min
- prolongation of duration of urethane-induced sleep [3]: more than 3 times
- LD50 [4]: 950 (792 to 1,140) mg/kg
- LD50 at 48 h [4]: 950 mg/kg
- TD50 (mean neurotoxic dose) [5]: 340(278 to 416) mg/kg
- TD50 [5]: 340 mg/kg
- ED50 (Camphor convulsions test): 99 mg/kg
- protection index I=TD50/ED50, Camphor (Camphor convulsions test; camphor): 3.44
- protection index PI (mean lethal dose / mean effective dose), Camphor (Camphor convulsions test; camphor): 9.6
- ED50 (Corazol convulsion test; Mus musculus, read-out: ED50 (corazol)): 87 mg/kg
- protection index I=TD50/ED50, Corazol (Corazol convulsion test; corazol): 3.91
- protection index PI (mean lethal dose / mean effective dose), Corazol (Corazol convulsion test; corazol): 10.9
- ED50 ([6]; Mus musculus, read-out: ED50 (Electroshock)): 64 mg/kg
- protection index I=TD50/ED50, Electroshock ([6]; electroshock): 5.3
- protection index PI (mean lethal dose / mean effective dose), Electroshock ([6]; electroshock): 14.85
- anticonvulsant activity in maximum electroshock test ([6]; in words): anticonvulsant activity was only exhibited by the proposed preparation and milontin

Structure (SMILES): CCC1(C)CC(=O)NC1=O (stereo not drawn) [Zarontin, α-methyl, ethylsuccinimide]
- dose inducing sleep (animal or person; intraperitoneal): ≥ 900 mg/kg
- dose causing tremors of the hind extremities (animal or person; mouse, in vivo, ip): 700 mg/kg
- Average Duration of Nembutal-Induced Sleep [2]: 76.9 ± 28.9 min
- ED50 (strychnine) (strychnine): 152 mg/kg
- Average Duration of Urethane-Induced Sleep [3]: 4.7 ± 2.1 min
- LD50 [4]: 1,325 (1,200 to 1,462) mg/kg
- LD50 at 48 h [4]: 1320 mg/kg
- TD50 (mean neurotoxic dose) [5]: 590(513 to 678) mg/kg
- TD50 [5]: 590 mg/kg
- ED50 (Camphor convulsions test): 131 mg/kg

Structure (SMILES): CCC1(C)CC(=O)NC1=O (stereo not shown) [pyknolepsin]
- patients with improvement [1]: 12 out of 14
